pIC50: −log10 of the molar value. “Also recorded” adds a separate entry of the source.
What was measured:
[1] = target: T1, human ABCC11 WT (NCBI accession NM_033151) (Homo sapiens, UniProt Q96J66); assay: Inhibition of ABCC11-mediated ATP-dependent [3H]-DHEAS transport into ABCC11-expressing plasma membrane vesicles (vesicle transport assay, rapid filtration); type: biochemical
T1 construct: made in house; host or cells: plasma membrane vesicles from HEK293-derived 293A cells infected with ABCC11-expressing recombinant adenovirus
T1 sequence (Q96J66 whole entry): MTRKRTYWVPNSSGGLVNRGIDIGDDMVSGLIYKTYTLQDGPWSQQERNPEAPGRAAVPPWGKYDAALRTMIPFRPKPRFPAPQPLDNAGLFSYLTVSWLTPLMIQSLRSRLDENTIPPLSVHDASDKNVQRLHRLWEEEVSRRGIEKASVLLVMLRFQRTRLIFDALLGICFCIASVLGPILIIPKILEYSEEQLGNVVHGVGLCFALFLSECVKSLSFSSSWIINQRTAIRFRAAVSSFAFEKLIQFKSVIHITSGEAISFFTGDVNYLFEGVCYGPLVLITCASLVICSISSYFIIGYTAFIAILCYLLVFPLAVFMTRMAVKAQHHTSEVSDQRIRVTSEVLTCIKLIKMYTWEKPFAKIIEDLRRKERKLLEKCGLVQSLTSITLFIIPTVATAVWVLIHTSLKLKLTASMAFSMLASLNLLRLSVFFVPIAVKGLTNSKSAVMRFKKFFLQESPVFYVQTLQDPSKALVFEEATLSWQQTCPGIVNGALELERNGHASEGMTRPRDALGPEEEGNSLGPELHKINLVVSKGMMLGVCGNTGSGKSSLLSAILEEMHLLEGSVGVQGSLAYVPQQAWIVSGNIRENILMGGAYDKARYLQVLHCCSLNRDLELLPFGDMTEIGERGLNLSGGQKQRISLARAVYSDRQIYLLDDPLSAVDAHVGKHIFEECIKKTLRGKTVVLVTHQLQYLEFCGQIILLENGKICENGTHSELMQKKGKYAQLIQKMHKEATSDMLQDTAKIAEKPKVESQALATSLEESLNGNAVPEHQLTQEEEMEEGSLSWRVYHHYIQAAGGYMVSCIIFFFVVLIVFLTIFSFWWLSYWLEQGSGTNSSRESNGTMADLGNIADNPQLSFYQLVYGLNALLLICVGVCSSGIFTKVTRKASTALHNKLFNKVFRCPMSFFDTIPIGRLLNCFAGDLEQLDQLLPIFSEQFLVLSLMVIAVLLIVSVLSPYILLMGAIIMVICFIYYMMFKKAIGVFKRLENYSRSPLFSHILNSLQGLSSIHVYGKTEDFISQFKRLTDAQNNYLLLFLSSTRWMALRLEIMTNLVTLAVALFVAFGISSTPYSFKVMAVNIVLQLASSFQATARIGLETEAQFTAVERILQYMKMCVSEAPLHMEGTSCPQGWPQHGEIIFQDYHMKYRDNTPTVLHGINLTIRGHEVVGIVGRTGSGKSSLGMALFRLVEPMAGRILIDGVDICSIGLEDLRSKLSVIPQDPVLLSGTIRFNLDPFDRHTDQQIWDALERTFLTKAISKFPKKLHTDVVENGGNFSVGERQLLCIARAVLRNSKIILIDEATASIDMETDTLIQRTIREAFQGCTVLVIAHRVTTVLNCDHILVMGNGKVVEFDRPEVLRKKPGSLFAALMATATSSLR
From the text: (§1) Using an in vitro transport system with ABCC11-expresssing plasma. membrane vesicles (FIG. 1A), we investigated the effect of the test compound on ABCC11 function. To confirm the experimental system, we first examined the time-dependent increase in ATP-dependent dehydroepiandrosterone sulfate (DHEAS)—an ABCC11 substrate (Chen et al., 2005)—transport into the ABCC11-expressing plasma membrane vesicles (FIG. 1B).
(§2) Critical materials and resources used in this study were summarized in Supplementary Table S1. […]
FIG. 1. […] The DHEAS transport into membrane vesicles was measured at the indicated periods with or without ATP; the ATP-dependent DHEAS transport was calculated by subtracting the DHEAS transport activity in the absence of ATP from that in the presence of ATP. Data are expressed as the mean±SD. n=3. […] The DHEAS transport activities were measured in the presence of febuxostat at the indicated concentrations for 5 min. Data are expressed as the mean±SD. n=4. […]
Critical materials and resources used in this study were summarized in Supplementary Table S1. […] After the purification by a CsCl gradient ultracentrifugation method, the adenovirus titer was determined by using an. […]

[2] = target: T2, human ABCC11 (Homo sapiens, UniProt Q96J66); assay: in vitro DHEAS vesicle transport assay with ABCC11-expressing plasma membrane vesicles; type: biochemical; details: ATP-dependent transport of 100 nM [3H]-DHEAS into ABCC11-expressing 293A plasma membrane vesicles, 5 min, 37° C., febuxostat at indicated concentrations
T2 construct: The complete human ABCC11 cDNA; expressed in transfected cells; host or cells: 293A cells (HEK293-derived), adenovirus-infected; plasma membrane vesicles prepared from them
T2 sequence (Q96J66 whole entry): as above
From the text: as §1, §2
Membrane vesicles were prepared from 293A cells infected with the ABCC11-expressing or EGFP-expressing (control) adenovirus as described previously (Toyoda et al., 2017). […] Protein concentration of the plasma membrane vesicles was quantified using a BCA Protein Assay Kit (Pierce, Rockford, Ill., USA) with bovine serum albumin (BSA) as a standard according to the manufacturer's protocol.
Experiments to study the in vitro transport of [1,2,6,7-^3H(N)]-dehydroepiandrosterone sulfate (DHEAS) (Perkin-Elmer Japan, Tokyo, Japan), an ABCC11 substrate (Chen et al., 2005), into ABCC11-expressing and control vesicles were performed by using a rapid filtration technique (Toyoda et al., 2017; Toyoda et al., 2019) with a minor modification. […] Then, the radioactivity derived from the incorporated DHEAS was measured. […]

| pIC50 [1] | SMILES | inhibition of ABCC11-mediated DHEAS transport [2] |
| --- | --- | --- |
| 5.49 | Cc1nc(-c2ccc(OCC(C)C)c(C#N)c2)sc1C(=O)O [Febuxostat] |  |
|  | Cc1nc(-c2ccc(OCC(C)C)c(C#N)c2)sc1C(=O)O [febuxostat] | Dose-dependent inhibition; also recorded: inhibited ABCC11 |

Reference: patent US20220288038A1, “ABCC11 INHIBITOR” (THE UNIVERSITY OF TOKYO, priority 2019, published 2022)
